Experiment: Compound was evaluated for inhibitory activity against Isoleucyl-tRNA synthetase

Row | Compound | IC50 [nM]
1 | CCCCS(=O)(=O)N[C@H]1CO[C@@H](C/C=C/C(=O)OCCCCCCCCC(=O)OC)[C@H](O)[C@@H]1O [9-{(E)-4-[(2S,3R,4R,5S)-5-(Butane-1-sulfonylamino)-3,4-dihydroxy-tetrahydro-pyran-2-yl]-but-2-enoyloxy}-nonanoic acid methyl ester] | 300
2 | COC(=O)CCCCCCCCOC(=O)/C=C/C[C@@H]1OC[C@H](NS(=O)(=O)c2cccc(Cl)c2)[C@@H](O)[C@H]1O [9-{(E)-4-[(2S,3R,4R,5S)-5-(3-Chloro-benzenesulfonylamino)-3,4-dihydroxy-tetrahydro-pyran-2-yl]-but-2-enoyloxy}-nonanoic acid methyl ester] | 300
3 | COC(=O)CCCCCCCCOC(=O)/C=C/C[C@@H]1OC[C@H](NS(=O)(=O)CCCCl)[C@@H](O)[C@H]1O [9-{(E)-4-[(2S,3R,4R,5S)-5-(3-Chloro-propane-1-sulfonylamino)-3,4-dihydroxy-tetrahydro-pyran-2-yl]-but-2-enoyloxy}-nonanoic acid methyl ester] | 100
